Measurements reported in patent publication US11819499B2, “Single-dose, ready-to-use injectable formulations” (BioSplice Therapeutics, Inc., priority 2016, dated 2023).
Marks after values point to notes of the source that are not given here. One block for each compound: values may come before it.

Columns and labels:
Type in all cases: physicochemical
[1] = Competitive slurry experiments between polymorph forms (15 forms mixed, 3-5 days, XRD)
Protocol: In order to find out the thermodynamic stability between the different forms, several competitive slurry experiments were carried out. Form 1, Form 2, Form 2*, Form 3, Form 4, Form 4*, Form 4**, Form 5, Form 7, Form 8, Form 9, Form 10, Form 11, Form 11*, and Form 13 (10 mg for each) was mixed and slurried in 2 mL of solvent at both RT and 50° C. The solids were slurried for 3-5 days and then analyzed by XRD.

[2] = Drying or heating in a DSC chamber followed by XRD (form conversion)
Protocol: The Form 1 solid was dried at 75° C. under vacuum overnight, and XRD, DSC, and TGA scans were performed. […] However, the DSC scans indicated the absence of endotherm. The loss of the early peak on the DSC scan had no effect on the XRD trace, showing that the wide endotherm between 50-100° C. on DSC scan was due to the free solvent.
The Form 1 solid was heated in a DSC chamber to 305° C. (past the endotherm/exotherm around 280° C.), and then scanned by XRD. […] It can be concluded that the endotherm/exotherm around 280° C. might be due to melting/crystallization events.
The Form 2 solid was heated in a DSC machine to 90° C. (past the wide endotherm between 50-100° C.); to 270° C. (past the endotherm/exotherm around 240° C.); and finally to 330° C. (past the […]). The residual solid was analyzed by XRD. […] The wide endotherm between 50-100° C. might be free solvent or hydrate. […] Thus, the exotherm around 290° C. was a re-crystallization event. According to an XRD and DSC overlay, the behavior of Form 2* was similar to Form 2.
This has been confirmed for Forms 1 and 2.
Form 13 solid was heated in a DSC chamber to 170° C. (past the endotherm between 50-100° C.), and then scanned by XRD. […] It can be concluded that the endotherm between 50-100° C. is due to bonded water.
Form 13 solid was heated in a DSC chamber to 330° C. (past the endotherm/exotherm around 300° C.), and then scanned by XRD. […] It can be concluded that the endotherm/exotherm is due to melting/crystallization events.

[3] = Exposure to relative humidity / air followed by XRD; conditions: for XRD after drying at 50° C. under vacuum: after air exposure overnight, then dried at 50° C. under vacuum; for XRD after exposure to air overnight: exposed to air overnight
From the text: FIGS. 15A-15D are scans of Form 1 in the presence of increasing relative humidity (RH), an example of a non-stoichiometric or stoichiometric hydrate of polymorph Form 1 of the compound of Formula (I). FIG. 15A is an x-ray powder diffraction scan of Form 1 exposed to 10% RH as the anhydrous Form 1. FIG. 15B is an x-ray powder diffraction scan of Form 1 exposed to 20% RH as a partial hydrate of Form 1. FIG. 15C is an x-ray powder diffraction scan of Form 1 exposed to 30% RH as a hydrate of Form 1 (≈10-12% water uptake). FIG. 15D is an x-ray powder diffraction scan of Form 1 exposed to 90% RH as a full hydrate of Form 1 (≈17-20% water uptake). […] The hydrate lost its water below 30% RH. […] The crystal lattice of Form 1 expanded when water was sorbed, giving rise to XRD peaks at ˜5, ˜7 and ˜11 degrees while maintaining the main XRD pattern. The hydrates of Form 1 of a compound of Formula (I) (Form 11) were fully reversible, and lost water when exposed to % RH of less than 20%, turning Form 11 to hydrated forms of Form 1 and to the anhydrous Form 1. Solvates 1 and 2 solids were exposed to air overnight, and then analyzed by XRD. After the analysis, the solids were dried at 50° C. under vacuum, and then analyzed by XRD again.

[4] = Reslurry experiments (polymorph screen) in 39 pure and binary solvents at RT and 50° C. for 5 days, XRD of wet and dry samples
Protocol: Reslurry experiments in various solvents were performed. Approximately 30-80 mg of the starting solid (a non-stoichiometric or stoichiometric hydrate of Form 1 having between 1% and about 20% by weight water) was slurried in 39 different solvents (pure and binary solvents; the ratio of organic solvent/water (V/V) was 95%/5%) at RT and 50° C. for 5 days. Three solvates, one hydrate, and eleven non-solvated forms were identified. […] XRD of both wet and dry samples were scanned (FIG. 12A (dry sample)).
The slurry experiments identified 3 solvated forms from wet samples (Solvates 1, 2, and 3); 2 non-stoichiometric hydrates of Form 1 (Forms 12 and 13); and 11 non-solvated forms (Forms 1-11). In some instances, similar XRD scans with minor differences were obtained. These were considered to be part of the same class (e.g., the same form). For example, XRD scans of Form 2 and Form 2* were similar and were considered to belong to the same class. The solvated forms were obtained from wet sample analysis; after drying, the sample indicated a different XRD.
Solvate 1 was obtained from acetone at RT, and after drying, a low crystallinity solid was generated. Solvate 2 was obtained from acetone (at RT) and acetone/water (at RT), and after drying, Form 4** was generated. Solvate 3 was obtained from EtOH/water at RT, and after drying, Form 2 was generated.

[5] = Dynamic vapor sorption (DVS) scan
From the text: The purity of the Form 13 sample was 98.8%; the KF of an undried Form 13 sample was 35.7%.

[6] = reslurry in Acetone/water (5% water), RT
[7] = reslurry in EtOH/water (5% water), RT
[8] = reslurry in Acetonitrile/water (5% water), RT
[9] = reslurry in EA/water (5% water), RT
[10] = reslurry in Heptane/water (5% water), RT
[11] = reslurry in IPAc/water (5% water), RT
[12] = reslurry in MA/water (5% water), 50° C.
[13] = reslurry in MIBK/water (5% water), RT
[14] = reslurry in MeOH/water (5% water), RT
[15] = reslurry in MtBE/water (5% water), RT
[16] = reslurry in n-Butyl acetate/water (5% water), RT

Dry (form by XRD) ([4]; reslurry in Acetone, 50° C.): Form 4**
Wet (form by XRD) ([4]; reslurry in Acetone, 50° C.): Solvate 2
Dry (form by XRD) [4, 6]: Form 4**
Wet (form by XRD) [4, 6]: Solvate 2
XRD after exposure to air overnight [3]: changed a little
Compound: CC(C)CC(=O)Nc1cncc(-c2ccc3[nH]nc(-c4nc5c(-c6cccc(F)c6)cncc5[nH]4)c3c2)c1 [Solvate 2, N-(5-(3-(7-(3-fluorophenyl)-3H-imidazo[4,5-c]pyridin-2-yl)-1H-indazol-5-yl)pyridin-3-yl)-3-methylbutanamide]
XRD after drying at 50° C. under vacuum [3]: remained the same as the solid exposed to air overnight

Dry (form by XRD) ([4]; reslurry in Acetone, RT): Low
Wet (form by XRD) ([4]; reslurry in Acetone, RT): Solvate 1
XRD after drying at 50° C. under vacuum [3]: still low crystallinity solid
XRD after exposure to air overnight [3]: converted to low crystallinity
Compound: CC(C)CC(=O)Nc1cncc(-c2ccc3[nH]nc(-c4nc5c(-c6cccc(F)c6)cncc5[nH]4)c3c2)c1 [Solvate 1, N-(5-(3-(7-(3-fluorophenyl)-3H-imidazo[4,5-c]pyridin-2-yl)-1H-indazol-5-yl)pyridin-3-yl)-3-methylbutanamide]

Dry (form by XRD) [4, 7]: Form 2
Wet (form by XRD) [4, 7]: Solvate 3
Compound: CC(C)CC(=O)Nc1cncc(-c2ccc3[nH]nc(-c4nc5c(-c6cccc(F)c6)cncc5[nH]4)c3c2)c1 [Solvate 3, N-(5-(3-(7-(3-fluorophenyl)-3H-imidazo[4,5-c]pyridin-2-yl)-1H-indazol-5-yl)pyridin-3-yl)-3-methylbutanamide]

form before and after the DVS scan ([5]; DVS scan): did not change its form
water absorption (DVS scan) ([5]; at 90% RH): 0.8%
Compound: CC(C)CC(=O)Nc1cncc(-c2ccc3[nH]nc(-c4nc5c(-c6cccc(F)c6)cncc5[nH]4)c3c2)c1 [Form 9, N-(5-(3-(7-(3-fluorophenyl)-3H-imidazo[4,5-c]pyridin-2-yl)-1H-indazol-5-yl)pyridin-3-yl)-3-methylbutanamide]

The next lines start with the compound.

Compound: CC(C)CC(=O)Nc1cncc(-c2ccc3[nH]nc(-c4nc5c(-c6cccc(F)c6)cncc5[nH]4)c3c2)c1 [Form 2, N-(5-(3-(7-(3-fluorophenyl)-3H-imidazo[4,5-c]pyridin-2-yl)-1H-indazol-5-yl)pyridin-3-yl)-3-methylbutanamide]
thermodynamic stability between forms (competitive slurry) ([1]; MeOH, EtOH, and acetone system at both RT and 50° C.): most stable form
form after heating (XRD) ([2]; heated in a DSC machine to 90° C.): did not change
form after heating (XRD) ([2]; heated to 270° C.): converted to low crystalline solids
form after heating (XRD) ([2]; heated to 330° C.): converted to Form 9
form when heated to just before melting ([2]; heated to just before melting at 364° C.): convert to Form 9

Compound: CC(C)CC(=O)Nc1cncc(-c2ccc3[nH]nc(-c4nc5c(-c6cccc(F)c6)cncc5[nH]4)c3c2)c1 [Form 11, N-(5-(3-(7-(3-fluorophenyl)-3H-imidazo[4,5-c]pyridin-2-yl)-1H-indazol-5-yl)pyridin-3-yl)-3-methylbutanamide]
RH below which the hydrate lost its water ([3]; relative humidity): less than 20%

Compound: CC(C)CC(=O)Nc1cncc(-c2ccc3[nH]nc(-c4nc5c(-c6cccc(F)c6)cncc5[nH]4)c3c2)c1 [Form 4, N-(5-(3-(7-(3-fluorophenyl)-3H-imidazo[4,5-c]pyridin-2-yl)-1H-indazol-5-yl)pyridin-3-yl)-3-methylbutanamide]
thermodynamic stability between forms (competitive slurry) ([1]; EA at RT and 50° C.): most stable

Compound: CC(C)CC(=O)Nc1cncc(-c2ccc3[nH]nc(-c4nc5c(-c6cccc(F)c6)cncc5[nH]4)c3c2)c1 [Form 12, N-(5-(3-(7-(3-fluorophenyl)-3H-imidazo[4,5-c]pyridin-2-yl)-1H-indazol-5-yl)pyridin-3-yl)-3-methylbutanamide]
Dry (form by XRD) [4, 8]: Form 1
Wet (form by XRD) [4, 8]: Form 12
Dry (form by XRD) [4, 9]: Form 1
Wet (form by XRD) [4, 9]: Form 12
Dry (form by XRD) [4, 10]: Form 12
Wet (form by XRD) [4, 10]: Form 13
Dry (form by XRD) [4, 11]: Form 1
Wet (form by XRD) [4, 11]: Form 12
Dry (form by XRD) [4, 12]: Form 4
Wet (form by XRD) [4, 12]: Form 12
Dry (form by XRD) [4, 13]: Form 1
Wet (form by XRD) [4, 13]: Form 12
Dry (form by XRD) [4, 14]: Form 1
Wet (form by XRD) [4, 14]: Form 12
Dry (form by XRD) [4, 15]: Form 1
Wet (form by XRD) [4, 15]: Form 12
Dry (form by XRD) [4, 16]: Form 12
Wet (form by XRD) [4, 16]: Form 13
